These molecules were tested on Adrenomedullin (Homo sapiens) (assay: Affinity against human adrenomedullin).
`Oc1c(OCc2nnc(CCCCCCCCc3nnc(COc4ccc5ccccc5c4O)n3Nc3ccccc3)n2Nc2ccccc2)ccc2ccccc12` was tested, and the Affinity was 83%. In the case of `c1ccc(Cn2c(CCCCCCc3nnc(COc4ccccc4)n3Cc3ccccc3)nnc2COc2ccccc2)cc1`, the Affinity is reported as 3%. `Nn1c(CCCCCCCCc2nnc(COc3c(O)ccc4ccccc34)n2N)nnc1COc1c(O)ccc2ccccc12` showed an Affinity of 46%. Molecule `Clc1ccc(OCc2nnc(CCCCCCCCc3nnc(COc4ccc(Cl)cc4)n3Nc3ccccc3)n2Nc2ccccc2)cc1` has an Affinity of 51%. In the case of `c1ccc(OCc2nnc(CCCCCCCc3nnc(COc4ccccc4)o3)o2)cc1`, the Affinity is reported as 6%. `c1ccc(OCc2nnc(CCCCCc3nnc(COc4ccccc4)o3)o2)cc1` was tested, and the Affinity was 4%. Work on `c1ccc(Cn2c(CCCCc3nnc(COc4ccccc4)n3Cc3ccccc3)nnc2COc2ccccc2)cc1` yielded an Affinity of 19%. Work on `O=C(CCCCC(=O)NNC(=O)COc1ccccc1)NNC(=O)COc1ccccc1` yielded an Affinity of 1%. In the case of `O=C(CCCCCC(=O)NNC(=O)COc1ccccc1)NNC(=O)COc1ccccc1`, the Affinity is reported as 16%. With `c1ccc(OCc2nnc(CCCCCCc3nnc(COc4ccccc4)o3)o2)cc1` the Affinity was 10%. `Oc1ccc2ccccc2c1OCc1nnc(CCCCCCCCc2nnc(COc3c(O)ccc4ccccc34)n2Nc2ccccc2)n1Nc1ccccc1` showed an Affinity of 24%. With `c1ccc(OCc2nnc(CCCCc3nnc(COc4ccccc4)o3)o2)cc1` the Affinity was 18%. `c1ccc(OCc2nnc(CCCCCCCCc3nnc(COc4ccccc4)o3)o2)cc1` showed an Affinity of 5%. Molecule `c1ccc(Cn2c(CCCCCCCc3nnc(COc4ccccc4)n3Cc3ccccc3)nnc2COc2ccccc2)cc1` has an Affinity of 20%. In the case of `c1ccc(Cn2c(CCCCCCCCc3nnc(COc4ccccc4)n3Cc3ccccc3)nnc2COc2ccccc2)cc1`, the Affinity is reported as 4%. Work on `Nn1c(CCCCCCCCc2nnc(COc3ccc(Cl)cc3)n2N)nnc1COc1ccc(Cl)cc1` yielded an Affinity of 19%. In the case of `c1ccc(Nn2c(CCCCCCCCc3nnc(COc4ccccc4)n3Nc3ccccc3)nnc2COc2ccccc2)cc1`, the Affinity is reported as 81%. `Nn1c(CCCCCCCCc2nnc(COc3ccc(Cl)cc3Cl)n2N)nnc1COc1ccc(Cl)cc1Cl` gave an Affinity of 48%. `O=C(CCCCCCCCC(=O)NNC(=O)COc1ccccc1)NNC(=O)COc1ccccc1` was tested, and the Affinity was 25%. `Clc1ccc(OCc2nnc(CCCCCCCCc3nnc(COc4ccc(Cl)cc4Cl)n3Nc3ccccc3)n2Nc2ccccc2)c(Cl)c1` was tested, and the Affinity was 68%. For `O=C(CCCCCCCC(=O)NNC(=O)COc1ccccc1)NNC(=O)COc1ccccc1`, the Affinity was 7%. In the case of `Nn1c(CCCCCCCCc2nnc(COc3ccc4ccccc4c3O)n2N)nnc1COc1ccc2ccccc2c1O`, the Affinity is reported as 42%. `O=C(CCCCCCC(=O)NNC(=O)COc1ccccc1)NNC(=O)COc1ccccc1` showed an Affinity of 20%. For `c1ccc(Cn2c(CCCCCc3nnc(COc4ccccc4)n3Cc3ccccc3)nnc2COc2ccccc2)cc1`, the Affinity was 14%.

Source: ChEMBL document CHEMBL1139542, “Synthesis, biological evaluation, and three-dimensional quantitative structure-activity relationship study of small-molecule positive modulators of adrenomedullin” (J Med Chem, 2005)
